inhibition, LD50 and disaggregation level data for six compounds are collected here from patent EP0101786A1, “Use of a benzoisothiazoline derivative for the manufacture of a medicament against thrombosis and platelet aggregation” (GREEN CROSS CORPORATION, priority 1982, dated 1984).

Broadly, the inhibition is how much of the control response was suppressed. Broadly, the LD50 is the dose at which mortality reaches 50%.

Data set [1] has as its system platelet aggregation initiated by promoter ADP (platelet-rich plasma). Kind of data set: Inhibition of ADP-induced platelet aggregation (aggregometer, nephelometry). The conditions noted are these: 2 min; for inhibition at 3 µg/mL: final conc. 3.0 γ/ml; for inhibition at 10 µg/mL: final conc. 10 γ/ml (10.0 γ/ml). In kind it is cell-based. The procedure: The inhibitory activity of BIT (1) compounds against platelet aggregation initiated by promoter ADP was determined for various amounts of the BIT (1) compounds. […] Silicon-coated cuvettes on the Aggregometer were filled with 0.8 ml of diluted platelet-rich plasma (containing 300,000 to 400,000 platelets per cmm) and 0.1 ml of solutions of the BIT (1) compounds listed in Table 1 having different concentration (0.3 y/ml, 1.0 γ/ml and 3.0 y/ml as dissolved in 100% alcohol), as well as adenosine (20 y/ml and 100 y/ml) and aspirin (500 y/ml) were added. Following 2-minute incubation, ADP was added to give a final concentration of 10^-5 M. The final volume of each sample was 1 ml. The process of platelet aggregation was monitored with the recorder pen which traced aggregation curves.
The percent inhibition of aggregation was calculated by the following formula: [formula] wherein M represents light transmittance for maximum aggregation in 100 % ethanol (Control);
D represents light transmittance for maximum aggregation in the specific sample.

Data set [2] can be described thus: Acute toxicity test, oral, Litchfield-Wilcoxon method. The conditions noted are these: mouse, in vivo, male ddy mice, suspension in distilled water with 0.5 % carboxymethyl cellulose. The procedure: A group of 10 male ddy mice each weighing […] were subject to an acute toxicity test with BIT (1) (R=n-C3H7, X-Cl) which was administered to the mice orally as suspensions in distilled water for injection that contained 0.5 % of carboxymethyl cellulose.

Data set [3] concerns platelets (platelet-rich plasma, ADP-aggregated). As to the kind of experiment: Acceleration of platelet disaggregation after ADP-induced maximum aggregation. The data set is classed as cell-based. The conditions noted are these: 5 minutes after addition, control about 12 %. The procedure: ADP was added to platelet-rich plasma as used in (1) above, and when maximum aggregation was reached, BIT (1) compound (R=n-C3H7, X-Cl) was added to check its ability to accelerate the disaggregation of platelets. In this experiment, the procedure of experiment (1) was repeated except that the BIT (1) was added after the aggregation of platelets occurred. To give final concentrations of 1.0 γ/ml, 3.0 y/ml and 6.0 y/ml as dissolved in 100 % ethanol, 0.1 ml of solutions containing 10 γ/ml, 30 γ/ml and 60 y/ml of BIT (1) were added after maximum platelet aggregation took place. As a control, 100 % ethanol was added instead of the BIT (1). The degree of disaggregation was determined by measuring the absorbance of the test samples 5 minuts after the addition of the BIT (1) as against the absorbance for maximum aggregation in that sample.

Where [4] appears, read: ADP 10^-5 M, 2-minute incubation.

For the compound `CCCCCCn1sc2cc(Cl)ccc2c1=O` [BIT (R=n-C6H13) (X=Cl), 6-chloro-2-n-hexyl-1,2-benzoisothiazolin-3-one], in data set [1] (setting [4]), the inhibition at 3 µg/mL stood at 100%.
For the compound `CC(=O)Oc1ccccc1C(=O)O` [Aspirin, reference compound], the inhibition at 50 µg/mL in data set [1] (read-out: Inhibition of platelet aggregation) turned out to be 0%.
Consider `O=c1[nH]sc2cc(Cl)ccc12` [BIT (R=H) (X=Cl)], for which the inhibition at 10 µg/mL in data set [1] (setting [4]) turned out to be 100%.
As for `CCCn1sc2cc(Cl)ccc2c1=O` [BIT (R=n-C3H7) (X=Cl), 6-chloro-2-n-propyl-1,2-benzoisothiazolin-3-one], the inhibition at 0.3 µg/mL in data set [1] (final conc. 0.3 γ/ml, ADP 10^-5 M, 2-minute incubation) is 18%. In data set [1] (final conc. 1.0 γ/ml, ADP 10^-5 M, 2-minute incubation), this compound registered an inhibition at 1 µg/mL of 43%. In data set [1] (setting [4]), this compound gave an inhibition at 3 µg/mL of 100%. Further, the LD50 in data set [2] came out at 6500 mg/kg. Moreover, the disaggregation level was determined as 25% in data set [3] (final concentration 1.0 γ/ml), 47% in data set [3] (final concentration 3.0 γ/ml) and 64% in data set [3] (final concentration 6.0 γ/ml).
As for `Nc1ncnc2c1ncn2[C@@H]1O[C@H](CO)[C@@H](O)[C@H]1O` [Adenosine, reference compound], at 2 µg/mL the inhibition in data set [1] (final conc. 2 γ/ml, ADP 10^-5 M, 2-minute incubation) was 47%. In addition, the inhibition at 10 µg/mL in data set [1] (setting [4]) amounted to 62%.
In data set [1] (setting [4]), `CCCCCCCCCCn1sc2cc(Cl)ccc2c1=O` [BIT (R=n-C10H21) (X=Cl), 6-chloro-2-n-decyl-1,2-benzoiso-thiazolin-3-one] displayed an inhibition at 3 µg/mL of 100%.
